Experimental data: patent US8779132B2, “Pharmaceutical compounds” (Astex Therapeutics Limited, priority 2006, dated 2014)
Structures can show the parent of a compound that is named as a salt.

Columns and labels:
Plasma stability studies = format: in vitro ADME; details: mouse plasma, 37° C., approximately 1 hour
Method: The ease with which pro-drug compounds of the invention can be converted to the active moiety can be assessed by measuring the in vitro plasma stability of the compounds. The method is based on the ability of plasma enzymes to metabolise compounds to the active moiety. Compounds are added to plasma and incubated at 37° C. for approximately 1 hour. Aliquots of plasma are removed at timed intervals and the compound extracted by the addition of acetonitrile containing an internal standard. All extracts are then analysed for parent compound, the active moiety and the internal standard using a compound specific LCMS-MS assay. Stability is measured by comparison of the peak area ratio of the parent compound and internal standard at time zero with the peak area ratio of the parent compound and internal standard in the incubated samples. Generation of the active moiety in samples is also assessed.

HCT116 cell line = assay: Anti-proliferative activity, Alamar Blue assay; format: cell-based; details: Homo sapiens, HCT-116, 72 h
Method: The anti-proliferative activities of compounds of the invention can be determined by measuring the ability of the compounds to inhibition of cell growth in a number of cell lines such as the human colon cancer cell line HCT116. […] The method is based on the ability of viable cells to reduce resazurin to its fluorescent product resorufin. […] The number of viable cells is determined by Alamar Blue assay as before. Cell lines can be obtained from the ECACC (European Collection of cell Cultures).

CC(C)c1cc(C(=O)N2Cc3ccc(N4CCN(C)CC4)cc3C2)c(OC(=O)C(C)(C)C)cc1OC(=O)C(C)(C)C [Example 85, 2,2-dimethyl-propionic acid 5-(2,2-dimethyl-propionyloxy)-4-isopropyl-2-[5-(4-methyl-piperazin-1-yl)-1,3-dihydro-isoindole-2-carbonyl]-phenyl ester]
generation of the active moiety (2,4-dihydroxy-5-isopropyl-phenyl)-[5-(4-methyl-piperazin-1-yl)-1,3-dihydro-isoindol-2-yl]-methanone (Plasma stability studies): formed the active moiety | in vitro plasma stability (Plasma stability studies): range of stabilities

CC(C)c1cc(C(=O)N2Cc3ccc(C(=O)N4CCNCC4)cc3C2)c(O)cc1O [Example 54, (2,4-dihydroxy-5-isopropyl-phenyl)-[5-(piperazine-1-carbonyl)-1,3-dihydro-isoindol-2-yl]-methanone hydrochloride]
IC50 (HCT116 cell line): < 1000 nM

CC(=O)Oc1cc(OC(C)=O)c(C(C)C)cc1C(=O)N1Cc2ccc(N3CCN(C)CC3)cc2C1 [Example 84, acetic acid 5-acetoxy-4-isopropyl-2-[5-(4-methyl-piperazin-1-yl)-1,3-dihydro-isoindole-2-carbonyl]-phenyl ester]
generation of the active moiety (2,4-dihydroxy-5-isopropyl-phenyl)-[5-(4-methyl-piperazin-1-yl)-1,3-dihydro-isoindol-2-yl]-methanone (Plasma stability studies): formed the active moiety | in vitro plasma stability (Plasma stability studies): range of stabilities

CC(C)c1cc(C(=O)N2Cc3ccccc3C2)c(O)cc1O [Example 5, (1,3-Dihydro-isoindol-2-yl)-(2,4-dihydroxy-5-isopropyl-phenyl)-methanone]
IC50 (HCT116 cell line): < 1000 nM

CC(C)c1cc(C(=O)N2Cc3ccc(N4CCN(C)CC4)cc3C2)c(OC(=O)N(C)C)cc1OC(=O)N(C)C [Example 86, dimethyl-carbamic acid 5-dimethylcarbamoyloxy-2-isopropyl-4-[5-(4-methyl-piperazin-1-yl)-1,3-dihydro-isoindole-2-carbonyl]-phenyl ester]
generation of the active moiety (2,4-dihydroxy-5-isopropyl-phenyl)-[5-(4-methyl-piperazin-1-yl)-1,3-dihydro-isoindol-2-yl]-methanone (Plasma stability studies): formed the active moiety | in vitro plasma stability (Plasma stability studies): range of stabilities
